The values that follow are results of earlier work, collected in patent US10653742B2, “Anti-inflammatory use of liquid phytocomplexes from olive” (FATTORIA LA VIALLA DI GIANNI, ANTONIO E BANDINO LO …, priority 2013, dated 2020).

For this series the following is noted: also in high concentrations.

With `OCCc1ccc(O)c(O)c1` [Hydroxytyrosol], the “toxic effect on in vivo administration” value is “no toxic effect”.
